Assay results as given in US20240335431A1, “1-H-PYRROLO[2,3-c]PYRIDINE COMPOUNDS” (Acerta Pharma B.V., priority 2023, published 2024).

Key:
[1] = molecular target: hERG (Homo sapiens (Human), UniProt Q12809); test: hERG assay 2, QPatch II 48X, room temperature; type: cell-based; conditions: hERG DUO cell line, top 200 μM
Protocol: Experiments were performed on the QPatch II 48X (Sophion Biosciences) high throughput patch clamp platform at room temperature and used single hole Qplates. hERG DUO cell line (BSys) was used. The internal patch clamp solution was KF 60 mM, KCl 70 mM, HEPES 10 mM, EGTA 10 mM, and 5 mM Mg ATP (pH7.2). After sealing and whole cell access was gained the external solution (NaCl 140 mM, KCl 4 mM, HEPES 10 mM, CaCl2 2 mM, MgCl2 1 mM, glucose 5 mM (pH 7.4) was applied twice to establish stable baseline currents. An industry standard +40/−40 mV voltage protocol was applied every 15 seconds. All compounds were tested in a 6-point cumulative assay (final DMSO concentration 0.4-2% depending on stock concentration of compounds). Compounds were dispensed from initial 10 mM or 50 mM DMSO stocks after which DMSO dilutions were undertaken with a top concentration of 200 μM tested. Solvent controls were run in all experiments in line with the DMSO % required. Only wells that passed acceptance criteria for this platform were used in this analysis (500 MegaOhm seal resistance and current size >0.2 nA). Analysis was completed in Prism Graphpad to complete a composite IC50, by plotting % inhibition versus log compound concentration and using a log(inhibitor) vs. response—Variable slope.

[2] = molecular target: hERG ion channel (Homo sapiens (Human), UniProt Q12809); test: hERG assay 3, QPatchII 48X, 30 degrees Celsius; type: cell-based; conditions: CHO cells
Protocol: Experiments were performed on the QPatchII 48X(Sophion Biosciences) high throughput patch clamp platform at 30 degrees Celsius using single holes QChips (Sophion Bioscience). Chinese hamster ovary K1 (CHO) cell lines over-expressing the hERG ion channel were used from live culture. All compounds were dispensed as solid stocks in glass vials. Compounds were solubilised to 10 or 50 mM DMSO stocks on the day of experiments, after which dilutions in DMSO we undertaken. Stamps of DMSO stocks were made into an MTP plate using glass vials, after which extracellular solution was backfilled creating testing concentrations with a highest concentration of 40 and 200 μM, respectively. The internal patch clamp solution was KF 60 mM, KCl 70 mM, HEPES 10 mM, EGTA 10 mM, and 5 mM Mg ATP (pH7.2).

[3] = molecular target: Menin protein (Homo sapiens, UniProt O00255, DEL460-519); test: Menin/MLL fluorescence polarization (FP) assay; type: binding; conditions: Menin 2 nM, cRho110-Ahx-MBM1/MBM2 peptide 1 nM
Outline: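 Fluorescence polarization of 1 nM cRho110-labelled MBM1/MBM2 peptide with 2 nM His-tagged Menin in 50 mM Tris pH 7.5, 50 mM NaCl, 1 mM TCEP, 0.01% BGG, 0.01% Brij-35. Compound series: 10-fold dilutions from 10 μM; 480/535 nm, read every 5 min for 180 min. IC50 via one-site fit, normalized to no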

[4] = molecular target: muscarinic M2 receptor (Homo sapiens (Human), UniProt P08172); test: Muscarinic M2 receptor functional assay, antagonist effect (assay 2); type: cell-based; conditions: cAMP, 1 μM acetylcholine
Protocol: Thereafter, the reference agonist acetylcholine and the adenylyl cyclase activator NKH 477 were added at respective final concentrations of 1 μM and 5 μM. For basal control measurements, acetylcholine was omitted from the wells containing 10 μM methoctramine. Following 10 minutes incubation at 37° C., the cells were lysed, and the fluorescence acceptor (D2-labeled cAMP) and fluorescence donor (anti-cAMP antibody labelled with europium cryptate) were added. After 60 minutes at room temperature, the fluorescence transfer was measured at λex=337 nm and λem=620 and 665 nm using a microplate reader (Rubystar, BMG). The cAMP concentration was determined by dividing the signal measured at 665 nm by that measured at 620 nm (ratio). The results were expressed as a percent inhibition of the control response to 1 μM acetylcholine. For test compounds and for standard reference antagonist methoctramine, which is tested in each experiment, assays were run in eight-point concentration response mode and IC50 values determined following non-linear regression curve analysis. Curve analysis was completed using software developed at Cerep (Hill software) and validated by comparison with data generated by the commercial software SigmaPlot®4.0 for Windows® (© 1997 by SPSS Inc.).

Menin protein, sequence (O00255 with tags, fused parts or gaps DEL460-519): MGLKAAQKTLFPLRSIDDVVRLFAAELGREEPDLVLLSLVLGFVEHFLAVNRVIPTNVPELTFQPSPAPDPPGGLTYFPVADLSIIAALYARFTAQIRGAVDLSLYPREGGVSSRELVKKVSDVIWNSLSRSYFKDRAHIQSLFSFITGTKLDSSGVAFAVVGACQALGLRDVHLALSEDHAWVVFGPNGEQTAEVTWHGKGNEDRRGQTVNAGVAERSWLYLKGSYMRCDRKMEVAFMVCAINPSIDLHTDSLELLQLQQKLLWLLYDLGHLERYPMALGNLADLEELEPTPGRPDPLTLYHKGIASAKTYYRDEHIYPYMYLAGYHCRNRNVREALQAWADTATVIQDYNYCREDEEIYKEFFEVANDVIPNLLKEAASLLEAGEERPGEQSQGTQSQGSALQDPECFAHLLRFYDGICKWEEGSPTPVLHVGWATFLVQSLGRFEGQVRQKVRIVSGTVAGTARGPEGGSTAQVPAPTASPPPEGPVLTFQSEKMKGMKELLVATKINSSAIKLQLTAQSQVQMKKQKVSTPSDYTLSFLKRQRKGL
hERG, sequence (Q12809 whole entry): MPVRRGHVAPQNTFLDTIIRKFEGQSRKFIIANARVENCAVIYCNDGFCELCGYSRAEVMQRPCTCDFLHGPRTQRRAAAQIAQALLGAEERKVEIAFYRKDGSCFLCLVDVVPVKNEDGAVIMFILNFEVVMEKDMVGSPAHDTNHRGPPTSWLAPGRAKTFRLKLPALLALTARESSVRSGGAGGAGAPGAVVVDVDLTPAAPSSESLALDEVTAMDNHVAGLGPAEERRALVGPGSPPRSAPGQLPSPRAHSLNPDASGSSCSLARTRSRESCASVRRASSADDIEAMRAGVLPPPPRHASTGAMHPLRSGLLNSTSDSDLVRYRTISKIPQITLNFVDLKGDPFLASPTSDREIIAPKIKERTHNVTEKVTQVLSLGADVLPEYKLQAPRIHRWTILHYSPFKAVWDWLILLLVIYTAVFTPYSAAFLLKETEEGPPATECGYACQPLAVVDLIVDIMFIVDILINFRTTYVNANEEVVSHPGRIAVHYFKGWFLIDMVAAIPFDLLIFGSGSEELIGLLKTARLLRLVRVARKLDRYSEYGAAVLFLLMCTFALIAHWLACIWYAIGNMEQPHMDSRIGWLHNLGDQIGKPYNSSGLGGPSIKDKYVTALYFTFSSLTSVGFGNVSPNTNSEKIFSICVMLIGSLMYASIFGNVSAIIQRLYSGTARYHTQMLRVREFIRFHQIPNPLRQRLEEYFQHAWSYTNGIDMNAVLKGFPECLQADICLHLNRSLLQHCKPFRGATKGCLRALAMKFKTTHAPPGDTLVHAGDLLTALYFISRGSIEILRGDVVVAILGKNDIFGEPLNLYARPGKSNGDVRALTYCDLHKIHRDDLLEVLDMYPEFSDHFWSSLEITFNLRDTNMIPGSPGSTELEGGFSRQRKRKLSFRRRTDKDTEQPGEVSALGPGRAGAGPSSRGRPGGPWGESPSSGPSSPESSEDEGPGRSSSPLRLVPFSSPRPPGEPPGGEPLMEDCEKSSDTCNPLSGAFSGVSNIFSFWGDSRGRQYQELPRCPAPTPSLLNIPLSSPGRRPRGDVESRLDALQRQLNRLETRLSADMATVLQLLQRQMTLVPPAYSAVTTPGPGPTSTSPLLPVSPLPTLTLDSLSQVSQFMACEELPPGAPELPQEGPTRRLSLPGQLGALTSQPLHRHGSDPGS
hERG ion channel, sequence (Q12809 whole entry): as above
muscarinic M2 receptor, sequence (P08172 whole entry): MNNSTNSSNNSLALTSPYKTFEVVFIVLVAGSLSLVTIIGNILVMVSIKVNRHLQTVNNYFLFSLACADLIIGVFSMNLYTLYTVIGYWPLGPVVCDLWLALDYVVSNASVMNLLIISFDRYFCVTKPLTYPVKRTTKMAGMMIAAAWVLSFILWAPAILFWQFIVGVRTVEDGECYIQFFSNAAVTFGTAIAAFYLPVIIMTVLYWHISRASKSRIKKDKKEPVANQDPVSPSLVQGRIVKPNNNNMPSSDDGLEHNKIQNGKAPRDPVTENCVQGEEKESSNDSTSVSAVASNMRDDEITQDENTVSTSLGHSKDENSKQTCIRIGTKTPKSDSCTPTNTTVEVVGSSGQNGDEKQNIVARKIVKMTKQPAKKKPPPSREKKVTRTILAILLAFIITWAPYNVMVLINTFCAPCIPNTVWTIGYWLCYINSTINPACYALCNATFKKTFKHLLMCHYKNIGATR

SMILES | IC50 [1] [µM] | IC50 [2] [µM] | IC50 [3] [µM] | IC50 [4] [µM]
CC(C)c1ncccc1-c1cc(F)ccc1-n1cc(C(=O)C2CN(C(=O)[C@H]3N[C@@H]4CC[C@H]3C4)C2)c2ccncc21 [Example 10, (1-((1R,3S,4S)-2-Azabicyclo[2.2.1]heptane-3-carbonyl)azetidin-3-yl)(1-(4-fluoro-2-(2-isopropylpyridin-3-yl)phenyl)-1H-pyrrolo[2,3-c]pyridin-3-yl)methanone] | 79.1 | 33.8 | – | –
CC(C)N(C(=O)c1cc(F)ccc1-n1cc(C(=O)C2CCN(C(=O)[C@H]3NC4CCC3CC4)CC2)c2ccncc21)C(C)C [Example 20, (S)-2-(3-(1-(2-Azabicyclo[2.2.2]octane-3-carbonyl)piperidine-4-carbonyl)-1H-pyrrolo[2,3-c]pyridin-1-yl)-5-fluoro-N,N-diisopropylbenzamide] | > 200 | – | 0.022 | 5.2
Cc1c(C(=O)C2CCN(C(=O)[C@@H]3CCC4(CC4)N3)CC2)c2ccncc2n1-c1ccc(F)cc1C(=O)N1[C@H](C)COC[C@H]1C (single isomer, unassigned) [Example 58-2] | – | 111 | 0.03 | 8.6
Cc1c(C(=O)C2CCN(C(=O)[C@@H]3CCC(C)(C)N3)CC2)c2ccncc2n1-c1ccc(F)cc1C(=O)N(C(C)C)C(C)C (single isomer, unassigned) [Compound 56-2] | 138 | 42.9 | 0.043 | –
